Results from PubChem BioAssay AID1963975 (Molecular Pharmacology Branch, DTP, NCI, 2024).
pIC50: −log10 of the molar value. Values belong to the compound of their own block, whether it stands above or below them.

Test system: 624824-186-R-J2-PDC multicell spheroids, viability
Experiment: Anticancer human tumor 624824-186-R-J2-PDC patient-derived colon adenocarcinoma cell line growth inhibition [PI3K]
Settings: for pIC50: curve of first compound; for viability, T/C: stronger effect = lower value
Outline: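 Complex 3D spheroids (cancer cells + endothelial HUVEC + mesenchymal stem cells); drug pairs of targeted agent x inavolisib/alpelisib/duvelisib/copanlisib; half-log series from ~Cmax, max 10 microM if Cmax unknown; endpoint viability.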

[1] = second compound 0.0316 µM, first compound 0.0316 µM
[2] = second compound 0.0316 µM, first compound 0.1 µM
[3] = second compound 0.1 µM, first compound 0.0316 µM
[4] = second compound 0.1 µM, first compound 0.1 µM
[5] = second compound 0.316 µM, first compound 0.0316 µM
[6] = second compound 0.316 µM, first compound 0.1 µM
[7] = second compound 1 µM, first compound 0.0316 µM
[8] = second compound 1 µM, first compound 0.1 µM
[9] = second compound 3.16 µM, first compound 0.0316 µM
[10] = second compound 3.16 µM, first compound 0.1 µM
[11] = second compound 10 µM, first compound 0.0316 µM
[12] = second compound 10 µM, first compound 0.1 µM
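Further: spheroids exposed to agents for 7 days before viability read.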
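Wherever viability, T/C is given: 100% = DMSO vehicle treated spheroids.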

pIC50 (second compound 0.0316 µM): < 7.00 | pIC50 (second compound 0.1 µM): < 7.00 | pIC50 (second compound 0.316 µM): < 7.00 | pIC50 (second compound 1 µM): < 7.00 | pIC50 (second compound 3.16 µM): < 7.00 | pIC50 (second compound 10 µM): 7.43
SMILES: CC(C)n1nc(-c2ccc3oc(N)nc3c2)c2c(N)ncnc21 + Cc1nc(NC(=O)N2CCCC2C(N)=O)sc1-c1ccnc(C(C)(C)C(F)(F)F)c1
viability, T/C (second compound 0.0316 µM, first compound 0.000316 µM): 68.1% | viability, T/C (second compound 0.0316 µM, first compound 0.001 µM): 74% | viability, T/C (second compound 0.0316 µM, first compound 0.00316 µM): 59.7% | viability, T/C (second compound 0.0316 µM, first compound 0.01 µM): 67.7% | viability, T/C [1]: 58.7% | viability, T/C [2]: 67.8% | viability, T/C (second compound 0.1 µM, first compound 0.000316 µM): 79.1% | viability, T/C (second compound 0.1 µM, first compound 0.001 µM): 64.5% | viability, T/C (second compound 0.1 µM, first compound 0.00316 µM): 65.4% | viability, T/C (second compound 0.1 µM, first compound 0.01 µM): 62.5% | viability, T/C [3]: 74% | viability, T/C [4]: 75% | viability, T/C (second compound 0.316 µM, first compound 0.000316 µM): 86.9% | viability, T/C (second compound 0.316 µM, first compound 0.001 µM): 69% | viability, T/C (second compound 0.316 µM, first compound 0.00316 µM): 81.6% | viability, T/C (second compound 0.316 µM, first compound 0.01 µM): 64.7% | viability, T/C [5]: 60.9% | viability, T/C [6]: 67.7% | viability, T/C (second compound 1 µM, first compound 0.000316 µM): 79.4% | viability, T/C (second compound 1 µM, first compound 0.001 µM): 61.1% | viability, T/C (second compound 1 µM, first compound 0.00316 µM): 61% | viability, T/C (second compound 1 µM, first compound 0.01 µM): 70.5% | viability, T/C [7]: 67.1% | viability, T/C [8]: 63.6% | viability, T/C (second compound 3.16 µM, first compound 0.000316 µM): 72.2% | viability, T/C (second compound 3.16 µM, first compound 0.001 µM): 61.3% | viability, T/C (second compound 3.16 µM, first compound 0.00316 µM): 66.1% | viability, T/C (second compound 3.16 µM, first compound 0.01 µM): 65.9% | viability, T/C [9]: 69.7% | viability, T/C [10]: 53.7% | viability, T/C (second compound 10 µM, first compound 0.000316 µM): 68.2% | viability, T/C (second compound 10 µM, first compound 0.001 µM): 74% | viability, T/C (second compound 10 µM, first compound 0.00316 µM): 65.8% | viability, T/C (second compound 10 µM, first compound 0.01 µM): 61.5% | viability, T/C [11]: 51.8% | viability, T/C [12]: 41.1%

pIC50 (second compound 0.0316 µM): < 5.00 | pIC50 (second compound 0.1 µM): < 5.00 | pIC50 (second compound 0.316 µM): < 5.00 | pIC50 (second compound 1 µM): < 5.00 | pIC50 (second compound 3.16 µM): < 5.00 | pIC50 (second compound 10 µM): 5.16
SMILES: CC1(C)CCC(CN2CCN(c3ccc(C(=O)NS(=O)(=O)c4ccc(NCC5CCOCC5)c([N+](=O)[O-])c4)c(Oc4cnc5[nH]ccc5c4)c3)CC2)=C(c2ccc(Cl)cc2)C1 + Cc1nc(NC(=O)N2CCCC2C(N)=O)sc1-c1ccnc(C(C)(C)C(F)(F)F)c1
viability, T/C [1]: 103% | viability, T/C [2]: 93.7% | viability, T/C (second compound 0.0316 µM, first compound 0.316 µM): 95.9% | viability, T/C (second compound 0.0316 µM, first compound 1 µM): 68.5% | viability, T/C (second compound 0.0316 µM, first compound 3.16 µM): 70.9% | viability, T/C (second compound 0.0316 µM, first compound 10 µM): 67.1% | viability, T/C [3]: 84.3% | viability, T/C [4]: 88.3% | viability, T/C (second compound 0.1 µM, first compound 0.316 µM): 88.2% | viability, T/C (second compound 0.1 µM, first compound 1 µM): 80.8% | viability, T/C (second compound 0.1 µM, first compound 3.16 µM): 84.1% | viability, T/C (second compound 0.1 µM, first compound 10 µM): 51.7% | viability, T/C [5]: 82.9% | viability, T/C [6]: 86.9% | viability, T/C (second compound 0.316 µM, first compound 0.316 µM): 75.6% | viability, T/C (second compound 0.316 µM, first compound 1 µM): 72.1% | viability, T/C (second compound 0.316 µM, first compound 3.16 µM): 67.1% | viability, T/C (second compound 0.316 µM, first compound 10 µM): 67.5% | viability, T/C [7]: 91.3% | viability, T/C [8]: 78.9% | viability, T/C (second compound 1 µM, first compound 0.316 µM): 79.6% | viability, T/C (second compound 1 µM, first compound 1 µM): 80.3% | viability, T/C (second compound 1 µM, first compound 3.16 µM): 100% | viability, T/C (second compound 1 µM, first compound 10 µM): 77.3% | viability, T/C [9]: 68.1% | viability, T/C [10]: 76.9% | viability, T/C (second compound 3.16 µM, first compound 0.316 µM): 80.3% | viability, T/C (second compound 3.16 µM, first compound 1 µM): 94.7% | viability, T/C (second compound 3.16 µM, first compound 3.16 µM): 83.6% | viability, T/C (second compound 3.16 µM, first compound 10 µM): 50.4% | viability, T/C [11]: 73% | viability, T/C [12]: 79.4% | viability, T/C (second compound 10 µM, first compound 0.316 µM): 68.5% | viability, T/C (second compound 10 µM, first compound 1 µM): 74.3% | viability, T/C (second compound 10 µM, first compound 3.16 µM): 82.6% | viability, T/C (second compound 10 µM, first compound 10 µM): 37.9%
